This assay has as its system L1210 leukemia ip in BDF1 mice, survival T/C. In words: NCI In Vivo Anticancer Drug Screen. Data for tumor model L1210 Leukemia (intraperitoneal) in B6D2F1 (BDF1) mice. As to conditions: endpoint: mean survival time, higher = longer survival. A digest of the protocol:
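Tumor was transplanted into mice, which were then dosed with test compound or vehicle alone. Survival was recorded for each group, and the treated figure was expressed relative to the control figure.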

Where [1] appears, read: dose: 100.0 mg/kg/injection, schedule: Q01DX001 (ip), vehicle: saline.
Setting [2] is: dose: 200.0 mg/kg/injection, schedule: Q01DX001 (ip), vehicle: saline.
Setting [3] is: dose: 400.0 mg/kg/injection, schedule: Q01DX001 (ip), vehicle: saline.
Where [4] appears, read: dose: 100.0 mg/kg/injection, schedule: Q01DX009 (ip), vehicle: Klucel (hydroxypropylcellulose) (HPC).
The mark [5] stands for this setting: dose: 100.0 mg/kg/injection, schedule: Q04DX003 (ip), vehicle: Klucel (hydroxypropylcellulose) (HPC).
[6] abbreviates: dose: 200.0 mg/kg/injection, schedule: Q01DX009 (ip), vehicle: Klucel (hydroxypropylcellulose) (HPC).
[7] abbreviates: dose: 200.0 mg/kg/injection, schedule: Q04DX003 (ip), vehicle: Klucel (hydroxypropylcellulose) (HPC).
The mark [8] stands for this setting: dose: 400.0 mg/kg/injection, schedule: Q01DX009 (ip), vehicle: Klucel (hydroxypropylcellulose) (HPC).
[9] abbreviates: dose: 400.0 mg/kg/injection, schedule: Q04DX003 (ip), vehicle: Klucel (hydroxypropylcellulose) (HPC).
[10] abbreviates: dose: 100.0 mg/kg/injection, schedule: Q01DX009 (ip), vehicle: saline with Tween-80.
Setting [11] is: dose: 200.0 mg/kg/injection, schedule: Q01DX009 (ip), vehicle: saline with Tween-80.
The mark [12] stands for this setting: dose: 400.0 mg/kg/injection, schedule: Q01DX009 (ip), vehicle: saline with Tween-80.
Setting [13] is: dose: 100.0 mg/kg/injection, schedule: Q04DX002 (ip), vehicle: saline.
[14] abbreviates: dose: 50.0 mg/kg/injection, schedule: Q01DX009 (ip), vehicle: saline with Tween-80.
Where [15] appears, read: dose: 100.0 mg/kg/injection, schedule: Q04DX003 (ip), vehicle: saline with Tween-80.
Setting [16] is: dose: 200.0 mg/kg/injection, schedule: Q04DX003 (ip), vehicle: saline with Tween-80.
The mark [17] stands for this setting: dose: 400.0 mg/kg/injection, schedule: Q04DX003 (ip), vehicle: saline with Tween-80.

Inconclusive results and toxic doses are left out.

Regarding `O=C(Nc1ccc(C2=NCCN2)cc1)Nc1cccc(NC(=S)Nc2ccc(C3=NCCN3)cc2)c1`, the T/C by setting is: (dose: 1.88 mg/kg/injection, schedule: Q01DX Z (ip), vehicle: saline) 95 % of control; (dose: 3.75 mg/kg/injection, schedule: Q01DX Z (ip), vehicle: saline) 103 % of control; (dose: 7.5 mg/kg/injection, schedule: Q01DX Z (ip), vehicle: saline) 113 % of control; (dose: 15.0 mg/kg/injection, schedule: Q01DX Z (ip), vehicle: saline) 150 % of control; (dose: 15.0 mg/kg/injection, schedule: Q01DX Z (oral), vehicle: saline) 97 % of control; (dose: 30.0 mg/kg/injection, schedule: Q01DX Z (ip), vehicle: saline) 150 % of control. Also, the T/C (dose: 30.0 mg/kg/injection, schedule: Q01DX Z (oral), vehicle: saline) was 100 % of control; the T/C (dose: 60.0 mg/kg/injection, schedule: Q01DX Z (oral), vehicle: saline) is 97 % of control; the T/C (dose: 120.0 mg/kg/injection, schedule: Q01DX Z (oral), vehicle: saline) is 107 % of control.
Turning to `CCCCCCCC(=O)Oc1ccc([N+](=O)[O-])cc1`, the T/C was 100 % of control (dose: 75.0 mg/kg/injection, schedule: Q01DX001 (ip), vehicle: saline); 109 % of control (dose: 150.0 mg/kg/injection, schedule: Q01DX001 (ip), vehicle: saline); 95 % of control (dose: 300.0 mg/kg/injection, schedule: Q01DX001 (ip), vehicle: saline).
In the case of `Cc1ccc(NC(=O)Nc2ccc(CNC(=O)COc3ccc(Cl)cc3C(=O)O)cc2)cc1S(=O)(=O)F`, the T/C under setting [1] is 100 % of control, the T/C under setting [2] was 94 % of control and the T/C under setting [3] was 94 % of control.
With `Nc1ccc2c(c1)S(=O)(=O)c1cc(O)ccc1O2`, the T/C under setting [4] is 98 % of control; the T/C under setting [5] was 102 % of control; the T/C under setting [6] is 95 % of control; the T/C under setting [7] was 97 % of control; the T/C under setting [8] was 96 % of control; the T/C under setting [9] was 102 % of control.
Regarding `C=CCS(=O)(=O)CC=C`, the T/C under setting [10] is 92 % of control, the T/C under setting [11] is 92 % of control and the T/C under setting [12] is 93 % of control.
Regarding `Nc1nc2c(c(=O)[nH]1)N(CC(=O)O)C(CNc1ccc(C(=O)NC(CCC(=O)O)C(=O)O)cc1)CN2` (centres undefined), the T/C is 94 % of control (dose: 100.0 mg/kg/injection, schedule: Q01DX001 (ip), vehicle: alkali diluted with saline); 93 % of control (dose: 200.0 mg/kg/injection, schedule: Q01DX001 (ip), vehicle: alkali diluted with saline); 96 % of control (dose: 400.0 mg/kg/injection, schedule: Q01DX001 (ip), vehicle: alkali diluted with saline).
For the molecule `CCOc1ccc(NC(=O)Nc2cccc(F)c2)cc1`, the T/C is, setting by setting: (dose: 12.5 mg/kg/injection, schedule: Q01DX009 (ip), vehicle: Klucel (hydroxypropylcellulose) (HPC)) 88 % of control; (dose: 25.0 mg/kg/injection, schedule: Q01DX009 (ip), vehicle: Klucel (hydroxypropylcellulose) (HPC)) 90 % of control; (dose: 50.0 mg/kg/injection, schedule: Q01DX009 (ip), vehicle: Klucel (hydroxypropylcellulose) (HPC)) 88 % of control; under setting [6], 90 % of control.
`CN(Cc1cnc2nc(N)nc(N)c2n1)c1cc(Cl)c(C(=O)NC(CCC(=O)O)C(=O)O)cc1Cl` (centres undefined): the T/C was 106 % of control (dose: 6.25 mg/kg/injection, schedule: Q01DX009 (ip), vehicle: sodium bicarbonate) and 115 % of control (dose: 12.5 mg/kg/injection, schedule: Q01DX009 (ip), vehicle: sodium bicarbonate).
For `CCN(CC)CCCC(C)Nc1cccc2c1C(=O)c1c(c(O)c3ccccc3c1O)C2=O` (centres undefined), the T/C runs as follows: (dose: 25.0 mg/kg/injection, schedule: Q04DX002 (ip), vehicle: saline) 93 % of control; (dose: 50.0 mg/kg/injection, schedule: Q04DX002 (ip), vehicle: saline) 93 % of control; under setting [13], 93 % of control.
Turning to `O=C(Nc1ccccc1F)Oc1ccc2ccccc2c1`, the T/C under setting [4] is 106 % of control, the T/C under setting [6] is 107 % of control and the T/C under setting [8] was 103 % of control.
The matching figures for `O=C(COc1ccc(Cl)cc1)N(c1ccccc1)C1CCCCC1`: 96 % of control, 96 % of control and 94 % of control.
Turning to `COc1ccc(C(=O)CC(c2ccc3c(c2)OCO3)c2c(O)c3ccccc3oc2=O)cc1OC` (centres undefined), the T/C by setting is: under setting [14], 97 % of control; under setting [10], 96 % of control; under setting [15], 94 % of control; under setting [11], 92 % of control; under setting [16], 102 % of control; under setting [12], 87 % of control. Also, under setting [17], the T/C was 89 % of control.
Consider `NC(=O)NCc1ccccc1`, for which the T/C reads like this: under setting [1], 105 % of control; under setting [2], 97 % of control; under setting [3], 103 % of control.
Regarding `O=C(O)C1CCC(=O)N1C(=O)OCc1ccccc1` (centres undefined), the T/C reads like this: under setting [15], 100 % of control; under setting [16], 97 % of control; under setting [17], 95 % of control.
As for `O=C(NN1C(=O)CSC1=S)c1ccc([N+](=O)[O-])s1`, the T/C is 96 % of control (dose: 50.0 mg/kg/injection, schedule: Q01DX005 (ip), vehicle: saline) and 102 % of control (dose: 100.0 mg/kg/injection, schedule: Q01DX005 (ip), vehicle: saline).
Consider `OCC1C2CCC(C2)C1c1ccccc1` (centres undefined), for which the T/C (dose: 9.38 mg/kg/injection, schedule: Q01DX001 (ip), vehicle: saline) is 103 % of control.
`O=C1CCCc2cc3c(cc21)CCCC3`: the T/C under setting [4] was 96 % of control; the T/C under setting [5] is 109 % of control; the T/C under setting [6] is 97 % of control; the T/C under setting [7] is 107 % of control; the T/C under setting [9] was 102 % of control.
As to `COc1ccc(-n2cnnn2)cc1`, the T/C under setting [1] was 103 % of control, the T/C under setting [2] was 103 % of control and the T/C under setting [3] was 103 % of control.
Turning to `C=CC(=O)c1ccccc1`, the T/C runs as follows: (dose: 25.0 mg/kg/injection, schedule: Q04DX002 (ip), vehicle: saline with Tween-80) 100 % of control; (dose: 50.0 mg/kg/injection, schedule: Q04DX002 (ip), vehicle: saline with Tween-80) 87 % of control; (dose: 100.0 mg/kg/injection, schedule: Q04DX002 (ip), vehicle: saline with Tween-80) 94 % of control.
With `COc1cc(C=O)ccc1OC(=O)Nc1cc([N+](=O)[O-])ccc1F`, the T/C is 97 % of control under setting [4], 93 % of control under setting [6] and 92 % of control under setting [8].
For the molecule `O=C(Cn1cc[n+](CC(=O)c2ccccc2)c1)c1ccccc1`, the T/C was 98 % of control (dose: 25.0 mg/kg/injection, schedule: Q01DX009 (ip), vehicle: saline with Tween-80); 90 % of control under setting [14]; 102 % of control under setting [10].
`Cc1nc2ccccc2c(=O)n1-c1ccc(N(CCCl)CCCl)cc1`: the T/C under setting [13] is 98 % of control; the T/C (dose: 200.0 mg/kg/injection, schedule: Q04DX002 (ip), vehicle: saline) is 117 % of control; the T/C (dose: 400.0 mg/kg/injection, schedule: Q04DX002 (ip), vehicle: saline) was 103 % of control.
`CCOC(=O)C(C)(C)CN(CC(C)(C)C(=O)OCC)C(C)(C)CO`: the T/C is 95 % of control (dose: 100.0 mg/kg/injection, schedule: Q01DX001 (ip), vehicle: other); 98 % of control (dose: 200.0 mg/kg/injection, schedule: Q01DX001 (ip), vehicle: other); 87 % of control (dose: 400.0 mg/kg/injection, schedule: Q01DX001 (ip), vehicle: other).
As for `O=C(O)C(Cl)(c1ccccc1)c1ccccc1`, the T/C by setting is: (dose: 75.0 mg/kg/injection, schedule: Q01DX001 (ip), vehicle: other) 94 % of control; (dose: 150.0 mg/kg/injection, schedule: Q01DX001 (ip), vehicle: other) 101 % of control; (dose: 300.0 mg/kg/injection, schedule: Q01DX001 (ip), vehicle: other) 100 % of control.

For the origin of these results see PubChem BioAssay AID248 (DTP/NCI, 2004).
